Measurements: patent publication US8648091B2, “Dihydroquinolinones as ectoparasiticides” (Novartis AG, priority 2007, dated 2014)

Tests used:
[1] = system: Ctenocephalides felis (cat flea); assay: Activity in vitro against Ctenocephalides felis (cat flea), artificial feeding system; details: fleas fed on treated blood for 24 hours, dead fleas
Description: 1. Activity In Vitro Against Ctenocephalides felis (Cat Flea). A mixed adult population of fleas is placed in a suitably formatted 96-well plate allowing fleas to access and feed on treated blood via an artificial feeding system. Each compound is tested by serial dilution in order to determine its minimal effective dose (MED). Fleas are fed on treated blood for 24 hours, after which the compound's effect is recorded. Insecticidal activity is determined on the basis of the number of dead fleas recovered from the feeding system.

[2] = system: Rhipicephalus sanguineus nymphs; assay: In-vivo test against Rhipicephalus sanguineus nymphs on Mongolian gerbils; design: species or system Mongolian gerbils (Meriones unguiculatus); details: spray (or spot-on) application, tick number reduction vs placebo, Abbot's formula
Description: 4. In-Vivo Test Against Rhipicephalus sanguineus Nymphs on Mongolian Gerbils (Meriones unguiculatus) On day 0, gerbils are treated with the test compound at a given dose by spray (or spot-on) application. On day +1 (+2), the animals are infested with nymphs of Rhipicephalus. sanguineus. Ticks are left on the animals until full repletion. Seven days after infestation nymphs dropped off fully engorged are collected and counted. They are kept until molting to also evaluate growth regulating activity of the test compound. Efficacy in killing (and growth regulating) is expressed as a tick number (and molted tick number) reduction in comparison with a placebo treated group, using the Abbot's formula.

Amblyomma variegatum = assay: Activity in vitro against ticks, microplate pre-coated with test compound; details: at 32 ppm; percentage of dead ticks compared to untreated controls
Description: (§1) 2. Activity In Vitro Against Ticks 5-10 ticks of different species (i.e. Rhipicephalus sanguineus, Dermacentor spp., etc.) are distributed into a microplate pre-coated with test compound. Each compound is tested by serial dilution in order to determine its Minimal Effective Dose (MED). The microplates are then incubated at 28° C. and 80% humidity until evaluation. At different time points, ticks are excited by carbon dioxide flush and/or heat. […] If the ticks fail to respond to the stimulation, they are considered dead and the compound is scored as active at the tested concentration. Activity is calculated as a percentage of dead ticks compared to untreated controls.

Dermacentor variabilis = assay: as above; details: at 10 ppm; percentage of dead ticks compared to untreated controls
Description: as §1

Rhipicephalus sanguineus [3] = assay: as above; details: at 10 ppm; percentage of dead ticks compared to untreated controls
Description: as §1

Dermanyssus gallinae = assay: Activity in vitro against Dermanyssus gallinae; details: at 63 ppm; 10 minutes contact, incubated 5 days
Description: 3. Activity In Vitro Against Dermanyssus gallinae A clean female mite population is used to seed a suitably formatted 96-well plate containing the test substances to be evaluated for antiparasitic activity. Each compound is tested by serial dilution in order to determine its Minimal Effective Dose (MED). Mites are left in contact with the test compound for 10 minutes and are then incubated at 25° C. and 60% relative humidity (RH) for 5 days, during which the test compound's effect is monitored. Acaricidal activity is confirmed if mites are dead without having laid eggs. Egg-laying and ensuing mite development are also recorded to identify possible growth-regulating activity.

Rhipicephalus sanguineus [4] = assay: In-vivo test against ticks (Rhipicephalus sanguineus) on dogs; design: species or system Dogs of the beagle breed; details: for six weeks; 25 mg/kg spot-on (15% solution in Transcutol); weekly reinfestation; vs placebo, Abbot's formula
Description: (§2) 5. In-Vivo Test Against Ticks (Rhipicephalus sanguineus) on Dogs Dogs of the beagle breed are separated into one treatment and one control group (4 dogs per group). On day 0, the dogs are treated with the test compound at a dose of 25 mg/kg (15% solution in Transcutol) by spot-on application (between the shoulder blades). On day +1, the animals are infested with unfed adult ticks (sex ratio 1:1). Evaluation of efficacy is performed at 48 h, and then weekly 48 h after reinfestation with ticks by counting the numbers of dead and live ticks recovered from the animals. Efficacy is expressed as comparison with a placebo treated group using the Abbot's formula. Infestation can be repeated at weekly intervals until efficacy drops.

Ixodes ricinus = assay: In-vivo test against ticks (Ixodes ricinus) on cats; details: 25 mg/kg spray (1% solution in Polypropylenglycol), vs placebo, Abbot's formula
Description: 6. In-Vivo Test Against Ticks (Ixodes ricinus) on Cats
as §2, with “Cats” for “5. In-Vivo Test Against Ticks (Rhipicephalus sanguineus) on Dogs Dogs of the beagle breed”, “cats” for “dogs”, “(1%” for “(15%”, “Polypropylenglycol)” for “Transcutol)”, “spray application.” for “spot-on application (between the shoulder blades).”

COc1ccc(C2(O)c3c(ccc(/C=C/C4(C)CCC(C(C)(C)O)O4)c3O)NC(=O)C2OC)cc1 (stereo not drawn) [compound No. 9] gave a mean efficacy ([1]; at 63 ppm) of 70%.

C=C(C)C1CCC(C)(/C=C/c2ccc3c(c2O)C(O)(c2ccc(OC)cc2)C(OC)C(=O)N3)O1 (stereo not drawn) [compound No. 8] gave a mean efficacy ([1]; at 100 ppm) of 90% and a mean efficacy ([2]; at 10 ppm) of 60%.

For COc1ccc(C2(O)c3c(ccc(/C=C/C4(C)CCC(C)(C)CO4)c3O)NC(=O)C2OC)cc1 (stereo not drawn) [compound No. 11], the mean efficacy ([1]; at 32 ppm) was 95%, the mean efficacy (Amblyomma variegatum) was 90% and the mean efficacy (Dermacentor variabilis) was 100%. The mean efficacy (Rhipicephalus sanguineus [3]) was 100%, the mean efficacy (Dermanyssus gallinae) was 90% and the mean efficacy ([2]; at 3.2 ppm) was 95%. The activity (Rhipicephalus sanguineus [4]) was “above 90%”, the activity (Ixodes ricinus; after one week) was 95% and the activity (Ixodes ricinus; after two weeks) was 70%.
